# Test results from patent publication US12576107B2, “Methods of treating chronic inflammatory diseases” (METIMEDI PHARMACEUTICALS CO., LTD., priority 2018, dated 2026).
# Columns and labels:
# NF-κb = test: Western blot of NF-κb in the tissue of retinal pigment epithelium; format: in vivo, mice; details: 2.5 mM (so in the source)
# Description: To prepare whole cell lysate, cells were lysed with lysis buffer (1% NP-40, 0.25% sodium deoxycholate, 150 mM NaCl, 1 mM EDTA, 1% Triton X-100, 50 mM Tris-HCl (pH 7.4), 10% Glycerol) with protease inhibitor cocktail (Roche, Basel, Switzerland) and phosphatase inhibitors (NA3VO4 1 mM, NaF 100 mM). Then, protein concentration was measured using the Bicinchoninic acid (BCA) assay kit (Thermo Scientific, Waltham, MA). Whole cell or nuclear lysates were transferred onto polyvinylidene fluoride membranes (Merck Millipore, Billerica, MA, USA). After blocking in 5% non-fat milk (Bio-Rad, Hercules, CA, USA) for 1 h, the membranes were incubated overnight at 4° C. with primary antibody diluted in TBST containing 100 mM Tris-HCl (pH 7.5), 1.5 M NaCl, and 0.5% Tween-20 obtained from Sigma-Aldrich, to which 5% BSA and 0.1% sodium azide (Sigma-Aldrich) had been added. Specific primary antibodies to HIF-1α (1:1000), HIF-2α (1:1000), LDH-A (1:1000), LDH-B (1:1000), TLR-4 (1:1000), NF-κB (1:1000), VEGF (1:1000), α-tubulin (1:1000), Actin (1:1000), and GAPDH (1:5000). The next day, the membranes were washed with TBST and incubated for 2 h with anti-rabbit secondary antibody (1:10000). Immunoblots were developed using a western blot detection reagent (Abclone, Seoul, Korea) and exposed to x-ray film (Agfa, Leverkusen, Germany) according to the manufacturer's protocol. […]
# laser-induced AMD mice = test: Laser-induced age-related macular degeneration (AMD) animal model; format: in vivo, C57BL/6 mice
# Description: Six-week-old female C57BL/6 mice (20-25 g) were purchased from Orient (Charles River Korea, Seoul, Korea). All animals were maintained in a 12-hour light/dark cycle (light on, 08:00) at 22° C.-25° C. with free access to food and water. The mice were placed individually in an induction chamber, and anesthesia was induced with 2% isoflurane (HANA PHARM CO., Seoul, Korea). The lesions were induced in each eye of the mice by laser photocoagulation (SDL405-700, SD Laser, China). The laser pulses were from blue laser (wavelength, 405 nm; SD Laser). Laser parameters were 100 μm spot size, 700 mw power and 1 s exposure time. A total of 15 mice were randomized into three groups: (i) not subjected to laser induction (n=3); (ii) subjected to laser burns and injected with the vehicle buffer (n=5); and (iii) CaLa, 2 mg/kg/day (B.I.D) (n=7). CaLa treatment was started the days after laser photocoagulation and was treated subcutaneously for 14 days. (33, 34)
# The histopathologic examination of retinal lesions was performed 2 weeks after 2 mg/kg of CaLa was administered subcutaneously. The enucleated eyes were fixed with 4% paraformaldehyde (PFA) for 24 h at 4° C., and eyes obtained by removing the anterior segments were washed three times in phosphate-buffered saline. The fixed flat-mounts were dehydrated in a graded series of ethanol and embedded in paraffin. […] The choroidal lesion and neovascularization on the flat-mounts were observed by confocal microscopy (Carl Zeiss, Oberkochen, Germany).
# Animals. […] Six-week-old C57BL mice were purchased from Orient (Charles River Korea, Seoul, Korea). All animals were maintained in a 12-hour light/dark cycle (light on, 08:00) at 22-25° C. with free access to food and water.
# Calcium lactate was purchased from Sigma Aldrich (St. Louis, MO, USA).
# Animal model for ocular disease. The mice were placed individually in an induction chamber, and anesthesia was induced with 2% isoflurane (HANA PHARM CO., Seoul, Korea). The laser-induced rupture of Bruch's membrane was induced in both eyes of mice by laser photocoagulation (SDL405-700, SD Laser, China). […]
# lactate dehydrogenase B = test: Immunocytochemistry of lactate dehydrogenase B in ARPE-19 cells; format: cell-based, Human; details: 2.5 mM, hypoxia
# Description: (§1) Human retinal pigment epithelium cell line, ARPE-19, was purchased from American Type Culture Collection (Manassas, VA, USA). The ARPE-19 cells were maintained in RPMI1640 containing 10% fetal bovine serum (Life Technologies, Gaithersburg, MD, USA), 100 IU/ml penicillin, and 100 μg/ml streptomycin (Welgene, Daegu, South Korea).
# (§2) ARPE-19 and SK-N-SH cells were fixed on bio-coated coverslips (BD bioscience, San Jose, CA, USA) by 4% PFA for 20 min and then incubated with the primary antibodies for 15 h. The primary antibodies were as follows: HIF-1a (1:300, BD Biosciences, San Jose, CA, USA); LDH-A (1:300, Santa Cruz Biotechnology, Santa Cruz, CA, USA); LDH-B (1:300, Santa Cruz Biotechnology, Santa Cruz, CA, USA); NF-κB (1:300, Santa Cruz Biotechnology, Santa Cruz, CA, USA); TLR-4 (1:300, Santa Cruz Biotechnology, Santa Cruz, CA, USA); apoE (1:200, Santa Cruz Biotechnology, Santa Cruz, CA, USA). After PBS wash, the cells were incubated with anti-mouse secondary biotinylated antibody (1:2000, Vector Laboratorie, Burlingame, CA, USA) and visualized with streptavidin conjugated to Fluorescein (Vector Laboratorie, Burlingame, CA, USA). […] Confocal fluorescence images were obtained with confocal laser scanning microscopy (LSCM, Nikon A1+, Tokyo, Japan) under a 60× oil immersion lens.
# [1] = tested on: hypoxia inducible factor-1α (HIF-1α); test: Immunocytochemistry of HIF-1α in ARPE-19 cells; format: cell-based, Human; details: 2.5 mM
# Description: as §1, §2
# lactate dehydrogenase A = test: Immunocytochemistry of lactate dehydrogenase A in ARPE-19 cells; format: cell-based, Human; details: 2.5 mM, normoxia
# Description: as §1, §2
structure (smiles),measurement,setting,value
CC(O)C(=O)[O-].CC(O)C(=O)[O-].[Ca+2] (stereo not shown) [calcium lactate],"inflammatory factor (NF-κb), Western blot",NF-κb,decreased
same,"choroidal lesion (fluorescence, flat-mount)",laser-induced AMD mice; 2 mg/kg daily subcutaneous,restored
same,"choroidal neovascularization (fluorescence, flat-mount)",laser-induced AMD mice; 2 mg/kg daily subcutaneous,restored
same,morphology of the retinal pigment epithelium (H&E),"laser-induced AMD mice; 2 mg/kg subcutaneous, choroidal flat-mount",recovered
same,"lactate dehydrogenase B, immunocytochemistry",lactate dehydrogenase B,increased
same,"hypoxia inducible factor-1α (HIF-1α), immunocytochemistry",[1],decreased
same,"lactate dehydrogenase A, immunocytochemistry",lactate dehydrogenase A,decreased
